Experiments:
lamin B1 = experiment: Lamin B1 integrity and distribution in HeLa cells, fluorescence confocal microscopy; format: cell-based; details: light or no light
Experimental: (§1) HeLa cells were grown on #1 glass coverslips to approximately 20% confluence and then exposed to ARS-coated TiO2 nanoparticles or appropriate controls overnight. Respective samples were either exposed to no light or light with a Fiber-Lite MI-150 High Intensity Fiber Optic 150 W Halogen Light Illuminator for 10 min. All samples were fixed in 3.6% formaldehyde (Fisher Scientific, Waltham, Mass., USA) and permeabilized in 0.2% Triton-100× (Fisher Scientific) for 10 min. Cells were then stained with either a mouse monoclonal to emerin primary antibody (Abcam, Cambridge, Mass., USA) followed by an Alexa488 goat anti-mouse IgG (H+L) secondary antibody (Invitrogen, Grand Island, N.Y., USA) or a chicken polyclonal to lamin B1 primary antibody (Abcam) followed by an Alexa488 goat anti-chicken IgG (H+L) secondary antibody (Invitrogen). All samples were then stained with Hoechst 33342 (Sigma) and coverslips were mounted in P-phenylenediamine containing mounting media. Samples were imaged on an Olympus IX81-UCB Spinning Disc Confocal Microscope (Olympus, Center Valley, Pa., USA) using a 100 W mercury burner (Ushio, Tokyo, Japan), Brightline filters for DAPI, FITC, and TEXAS RED (Semrock, Rochester, N.Y., USA), and an ORCA-ER-1394 high-resolution digital camera (Hamamatsu, Japan). All images are presented as […] optical slice fluorescence overlays in either two or three dimensions. […]

plasmid DNA = experiment: Plasmid DNA nicking by agarose gel electrophoresis after light exposure; format: biochemical; details: visible light, 150 W halogen bulb, 10 min
Experimental: The effect of visible light activated ARS-coated TiO2 nanoparticles was assessed by illuminating plasmid containing samples with a Fiber-Lite MI-150High Intensity Fiber Optic EKE 150 W21VHalogen Light Illuminator (Dolan-Jenner Industries, Boxborough, Mass., USA) for 10 min. […] All samples were then run on a 1.25% agarose gel at 60V for 4 h, stained with GelStar (Lonza, Mapleton, Ill., USA), and imaged on a Kodak Gel Logic 2200 Imaging System (Kodak, Rochester, N.Y., USA).
Considering these factors, we sought to determine the effect of visible light activated ARS-coated TiO2 nanoparticles on plasmid DNA integrity using a standard agarose gel electrophoresis technique developed by others. According to this assay, nicked (single-stranded DNA break), linear (double-stranded DNA break), and supercoiled (undamaged) plasmid DNA can be distinguished on an agarose gel by viewing differences in mobility (with the nicked plasmid DNA migrating at the slowest rate and supercoiled plasmid DNA migrating at the fastest rate) [13,15]. Samples were prepared that contained plasmid DNA and either (1) dH2O, (2) ARS, (3) TiO2 nanoparticles, or (4) ARS-coated TiO2 nanoparticles. […]

emerin = experiment: Emerin integrity and distribution in HeLa cells, fluorescence confocal microscopy; format: cell-based; details: regardless of light treatment
Experimental: as §1

[1] = tested on: kanamycin-resistant E. coli; experiment: Bacterial assay: incubation with samples, halogen light, plating on kanamycin LB agar; format: cell-based; details: incubated 10 minutes, 150 W halogen bulb 10 minutes, plated overnight at 37° C.
Experimental: When using dye-coated TiO2 nanoconjugates to inflict damage on bacteria, the dye alizarin red s was used (FIG. 24). The following protocol was used: a bacterial culture of kanamycin-resistant E. coli was grown overnight at 37° C. at 250 rpm and then stored at 4° C. for later use in the experiment. Aliquots of the starter bacterial culture were then incubated with either (1) dH2O, (2) alizarin red s, (3) 6 nm TiO2 nanoparticles, or (4) alizarin red s-coated-6 nm TiO2 nanoconjugates for 10 minutes. All samples were then exposed to a 150 W halogen bulb for 10 minutes and plated on kanamycin-containing LB agar plates, incubated overnight at 37° C., and photographed with a digital camera.

HeLa cells = experiment: Duration of light exposure on HeLa cells treated with dye-modified TiO2 nanoparticles; format: cell-based; details: dark or 30 minutes of 750 W halogen visible light, fixed 24 hours post exposure
Experimental: In this Example, we tested the duration of light exposure on cells treated with dye-modified TiO2 nanoparticles. […] Cells were fixed in 4% formaldehyde 24 hours post exposure and 1 μm slices fluorescence confocal images are presented. […] The cellular response is heterogeneous.

| Molecule | lamin B1 integrity and distribution (lamin B1) | nicking of plasmid DNA (plasmid DNA) | emerin integrity and distribution (emerin) | bacterial growth (colonies on plate) [1] | cellular responses (HeLa cells) |
| --- | --- | --- | --- | --- | --- |
| O=C1c2ccccc2C(=O)c2c1cc(S(=O)(=O)[O-])c(O)c2O.[Na+] [ARS, alizarin red s] | normal lamin B1 integrity and distribution | slight expected increase in nicked plasmid DNA | normal emerin integrity and distribution | bacterial colonies are witnessed |  |
| alizarin blue black b [ABBB] |  |  |  |  | no detectable cellular responses |

Source: patent US20130217765A1, “MULTIFUNCTIONAL NANOCONJUGATES AND USES THEREOF” (priority 2012, published 2013)
